Experimental findings from patent US12065420B2, “Uses of balaenone and method of extraction thereof” (HARDIE HEALTH LIMITED, priority 2018, dated 2024) are described below.

Data set [1] can be described thus: Storage stability of Balaenone. It counts as physicochemical. Particulars: away from light and oxygen. From the text: Final purification of trans-Balaenone on silica gel separated it from an oxygenated aromatic compound, subsequently identified as halifordin (8). Without being bound by theory, it is believed that degradation is due to the presence of halifordin (8), which is also present in the methanol extract of M. latifolia.
In a separate experiment, purified trans-Balaenone was photochemically reacted with atmospheric oxygen in the presence of Rose Bengal (another known photogenerator of singlet oxygen), which generated 7b among other oxidation products.
Removal of halifordin (8) from the extract provides a purified composition of trans-Balaenone in which trans-Balaenone is stable at room temperature, when stored away from light and oxygen. It is believed that the same process would occur with respect to cis-Balaenone.

Data set [2] concerns Staphylococcus aureus. The data set is described as follows: TLC bioautography antibacterial assay, S. aureus. It counts as cell-based. To be noted: qualitative. Here is the method:
(§1) The crude (1st methanolic) extract of M. latifolia bark and five chromatographic fractions obtained using the purification process outlined in Example 1 were submitted for TLC bioautography studies for qualitative determination of antibacterial activity.
(§2) Briefly, a reference plate was prepared by loading the samples on a silica gel TLC plate which was developed using an established solvent system (10% ethyl acetate in petroleum ether) to separate their components based on polarity. The developed plates were then visualised using 5% v/v sulfuric acid in methanol+0.1% w/v vanillin in ethanol, followed by heat. Using this method, Balaenone was distinguished as a bright pink to red spot (see FIG. 7).
(§3) Multiple copies of this plate were then prepared and developed using the same solvent system, but instead are visualised by pouring agar inoculated/spiked with one of the following micro-organisms (see below) and allowed to incubate before visualisation with a reduction dye.

Data set [3] deals with Staphylococcus epidermidis. The data set is described as follows: TLC bioautography antibacterial assay, S. epidermidis. Particulars: qualitative. It counts as cell-based. Here is the method:
as §1, §2, §3

The structures appear in SMILES notation.

For the compound `CC1=C2c3c(C)coc3CC[C@H](C)[C@H]2CC1=O` [trans-Balaenone, (6S,6aR)-1,6,9-trimethyl-5,6,6a,7-tetrahydroazuleno[5,4-b]furan-8(4H)-one], the stability on storage result in data set [1] (cool temperatures) is reported as “quite stable”; in data set [1] (room temperature, in the absence of halifordin (8)), “essentially stable”.
In the case of `CC1=C2c3c(C)coc3CCC(C)C2CC1=O` (stereo not shown) [Balaenone], the “antibacterial activity (zones of inhibition)” value in data set [2] and in data set [3] was “zones of inhibition” in each case.
